Eleven compounds from ChEMBL document CHEMBL4308867, “Discovery of naldemedine: A potent and orally available opioid receptor antagonist for treatment of opioid-induced adverse effects” (Bioorg Med Chem Lett, 2019) can be followed below.

A value given as a limit tells only on which side of the number the result lay.

Data set [1] in a line: Stability in rat microsomes assessed as parent compound remaining at 0.5 uM measured after 0.5 hrs. The class given is ADME, Microsome. As to conditions: read-out: Stability.
A short description of data set [2]: Stability in plasma (unknown origin) assessed as parent compound remaining after 24 hrs. As to conditions: read-out: Stability. It is filed as ADME, cell-free.
Data set [3] in a line: Total clearance in rat at 1 mg/kg, po administered as cassette dose. It is filed as ADME, organism-based. Conditions: in vivo.
Data set [4] can be described thus: Cmax in rat brain at 1 mg/kg, po administered as cassette dose. It is filed as ADME, organism-based. Also on record: dose 1 mg/kg, route oral.
The target of data set [5] is T1, Delta-type opioid receptor (Homo sapiens, UniProt P41143). Briefly: Displacement of [3H]-DADLE from recombinant human delta-opioid receptor expressed in HEK293 cells. The class given is cell-based. (In general: In a radioligand displacement assay an active substance lowers the binding of a labelled ligand.)
The nature of data set [6]: Oral bioavailability in rat at 1 mg/kg administered as cassette dose. The class given is ADME, organism-based. As to conditions: in vivo.
The nature of data set [7]: Brain to blood partition coefficient, Kp of the compound in rat at 1 mg/kg, po administered as cassette dose. The class given is ADME, organism-based.
Data set [8] has as its target T2, Mu-type opioid receptor (Homo sapiens, UniProt P35372). Briefly: Displacement of [3H]-DAMGO from recombinant human mu-opioid receptor expressed in CHOK1 cells. It is filed as cell-based.
The nature of data set [9]: Drug metabolism assessed as formation of 14-O-acyl form and 7-acyl form mixture.
Data set [10] in a line: Stability in human microsomes assessed as parent compound remaining at 0.5 uM measured after 0.5 hrs. It is filed as ADME, Microsome. As to conditions: read-out: Stability.
Another data set relates to Mustela putorius furo. Nature of the data set: In vivo antagonist activity at mu-opioid receptor in po dosed ferret assessed as inhibition of morphine-induced emesis/vomiting. It is filed as functional.
Data set [11] addresses T1, Delta-type opioid receptor. Nature of the data set: Antagonist activity at delta-opioid receptor (unknown origin) by [35S]-GTPgammaS binding assay. The class given is functional. A general note: GTPγS resists hydrolysis and so accumulates on activated G proteins.
Data set [12] relates to Rattus norvegicus. Nature of the data set: Antianalgesic activity in po dosed rat assessed as inhibition of morphine-induced analgesia by tail-flick test. The class given is functional.
For data set [13], the species on record is Rattus norvegicus. Nature of the data set: […]. It is filed as functional. As to conditions: po.
Data set [14] deals with Rattus norvegicus. Nature of the data set: Selectivity ratio of ED50 for inhibition of morphine-induced analgesia in po dosed rat to ED50 for inhibition of morphine-induced constipation in po dosed rat. It is filed as functional.
Data set [15] is described as follows: Selectivity ratio of ED50 for inhibition of morphine-induced analgesia in po dosed rat to ED50 for inhibition of morphine-induced emesis/vomiting in po dosed ferret. The class given is functional.
A short description of data set [16]: Chemical stability of the compound. The class given is physicochemical.
Data set [17] addresses T2, Mu-type opioid receptor. Nature of the data set: Antagonist activity at mu-opioid receptor (unknown origin) by [35S]-GTPgammaS binding assay. It is filed as functional.

T2 sequence (P35372 whole entry): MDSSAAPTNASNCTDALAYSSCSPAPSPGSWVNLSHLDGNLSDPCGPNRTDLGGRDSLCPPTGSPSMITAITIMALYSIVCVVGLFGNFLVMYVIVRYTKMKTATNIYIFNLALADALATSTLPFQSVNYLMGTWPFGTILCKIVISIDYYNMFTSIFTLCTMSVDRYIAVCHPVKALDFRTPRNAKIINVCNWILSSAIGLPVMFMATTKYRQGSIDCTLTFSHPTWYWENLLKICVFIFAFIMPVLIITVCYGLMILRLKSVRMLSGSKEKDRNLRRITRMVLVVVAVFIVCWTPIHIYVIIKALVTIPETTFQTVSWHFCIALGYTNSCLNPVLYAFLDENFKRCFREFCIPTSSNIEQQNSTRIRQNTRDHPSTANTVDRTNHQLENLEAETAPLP
T1 sequence (P41143 whole entry): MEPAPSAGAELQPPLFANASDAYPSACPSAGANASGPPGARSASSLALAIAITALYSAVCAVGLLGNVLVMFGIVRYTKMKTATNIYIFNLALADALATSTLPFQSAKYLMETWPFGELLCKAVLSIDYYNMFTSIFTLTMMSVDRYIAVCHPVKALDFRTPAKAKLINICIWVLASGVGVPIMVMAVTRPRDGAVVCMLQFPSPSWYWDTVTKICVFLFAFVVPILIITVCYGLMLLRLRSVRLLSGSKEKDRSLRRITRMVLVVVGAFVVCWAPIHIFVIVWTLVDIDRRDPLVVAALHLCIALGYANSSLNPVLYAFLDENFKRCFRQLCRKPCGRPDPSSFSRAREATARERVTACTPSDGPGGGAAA

For the compound `CCC(=O)C1=C(O)[C@@H]2Oc3c(O)ccc4c3[C@@]23CCN(CC2CC2)[C@H](C4)[C@]3(O)C1`, the remaining at 0.5 h, 0.5 µM in [1] was found to be 46%; in [10], 85%. Also, in [2], the remaining at 24 h is less than 20%. The compound also registered a CL/F in data set [3] of 18.8 L/h/kg. The compound also came in with a peak concentration (Cmax) in data set [4] of 6.5 ng/mL. For the same compound, the results for the inhibition constant Ki (in [5]; at Mu-type opioid receptor [8]) were 9.9 nM and 1.4 nM, respectively. In data set [6], the bioavailability is 6.4%. This compound also had a Kp in data set [7] of 1.7. In data set [9], the Drug metabolism entry was “Metabolite detected”.
Turning to `COC(=O)C1(NC(=O)C2=C(O)[C@@H]3Oc4c(O)ccc5c4[C@@]34CCN(CC3CC3)[C@H](C5)[C@]4(O)C2)CC1`, the figures for the ED50 with Mustela putorius furo, in the data set on Rattus norvegicus [12] and in the data set listed under Rattus norvegicus [13] were 0.026 mg/kg, more than 100 mg/kg and 0.57 mg/kg, respectively. Moreover, the Ke in data set [11] amounted to 7.6 nM; at Mu-type opioid receptor [17] it was 4.1 nM. Also, the remaining at 0.5 h, 0.5 µM in [1] amounted to 103%; in data set [10], 100%. For the same compound, in data set [2], the remaining at 24 h is more than 80%. For the same compound, the “Ratio ED50” value was more than 175 in the data set on Rattus norvegicus [14] and more than 3846 in [15]. For the same compound, in data set [3], the CL/F is 1.8 L/h/kg. Also, the Cmax in data set [4] turned out to be 1.3 ng/mL. Further, the Ki in data set [5] is 9.8 nM; at Mu-type opioid receptor [8], 1.6 nM. Further, the Stability entry in [16] was “Stable”. This compound registered a bioavailability in data set [6] of 11%. In data set [7], this compound came in with a partition ratio (Kp) of 0.06.
In the case of `O=C(Nc1ccccc1)C1=C(O)[C@@H]2Oc3c(O)ccc4c3[C@@]23CCN(CC2CC2)[C@H](C4)[C@]3(O)C1`, the ED50 was determined as 0.04 mg/kg in the data set with Mustela putorius furo, 16.5 mg/kg in the data set on Rattus norvegicus [12] and 0.99 mg/kg in the data set listed under Rattus norvegicus [13]. The Ke stood at 3.6 nM in data set [11] and 3.2 nM on Mu-type opioid receptor [17]. Moreover, the figures for the remaining at 0.5 h, 0.5 µM in data set [1] and in data set [10] were 78% and 89%, respectively. The remaining at 24 h in data set [2] is more than 80%. The “Ratio ED50” value in the data set on Rattus norvegicus [14] is 17; in data set [15] it was 413. The compound also registered a CL/F in [3] of 2.16 L/h/kg. The values for the Ki (in data set [5]; on Mu-type opioid receptor [8]) were 6.8 to 20 nM and 1 to 4.1 nM, respectively. Further, in data set [16], the Stability result is given as “Stable”. Further, the bioavailability in data set [6] was found to be 57%.
In the case of `O=C(C1=C(O)[C@@H]2Oc3c(O)ccc4c3[C@@]23CCN(CC2CC2)[C@H](C4)[C@]3(O)C1)N1CCCC1`, the figures for the remaining at 0.5 h, 0.5 µM in data set [1] and in [10] were 24% and 99%, respectively. Besides, in [2], the remaining at 24 h was more than 80%. The same compound showed a CL/F in data set [3] of 6.12 L/h/kg. Besides, the peak level in data set [4] (Cmax) was 3 ng/mL. Further, the results for the Ki (in data set [5]; on Mu-type opioid receptor [8]) were 7.4 nM and 4 nM, respectively. Further, the Stability result in data set [16] was “Stable”. The compound further yielded a bioavailability in data set [6] of 18%. The same compound yielded a Kp in data set [7] of 0.22.
`CC(C)NC(=O)C1=C(O)[C@@H]2Oc3c(O)ccc4c3[C@@]23CCN(CC2CC2)[C@H](C4)[C@]3(O)C1`: the ED50 amounted to 0.04 mg/kg in the data set on Mustela putorius furo, 10.7 mg/kg in the data set with Rattus norvegicus [12] and 0.57 mg/kg in the data set filed under Rattus norvegicus [13]. Also, the Ke turned out to be 3.8 nM in [11] and 6.2 nM at Mu-type opioid receptor [17]. Further, the remaining at 0.5 h, 0.5 µM is 88% in data set [1] and 95% in data set [10]. Also, the remaining at 24 h in data set [2] was more than 80%. Moreover, the “Ratio ED50” value worked out at 19 with Rattus norvegicus [14] and 266 in data set [15]. The same compound yielded a CL/F in [3] of 2.46 L/h/kg. For the same compound, the Ki lay within 2 to 7.4 nM in [5] and 3.4 to 5.2 nM on Mu-type opioid receptor [8]. Further, in [16], the Stability result was “Stable”. In data set [6], this compound returned a bioavailability of 50%.
As for `O=C(NCc1ccccc1)C1=C(O)[C@@H]2Oc3c(O)ccc4c3[C@@]23CCN(CC2CC2)[C@H](C4)[C@]3(O)C1`, the results for the remaining at 0.5 h, 0.5 µM in data set [1] and in data set [10] were 14% and 94%, respectively. In data set [2], the remaining at 24 h is more than 80%. Moreover, in data set [3], the CL/F was 3.66 L/h/kg. In addition, the Cmax in data set [4] is 12 ng/mL. The Ki in data set [5] was found to be 16 nM; on Mu-type opioid receptor [8] it was 1.1 nM. For the same compound, the Stability result in data set [16] is on record as “Stable”. Besides, the bioavailability in data set [6] was determined as 46%. This compound also gave a partition ratio (Kp) in [7] of 0.17.
As to `CC(C)(NC(=O)C1=C(O)[C@@H]2Oc3c(O)ccc4c3[C@@]23CCN(CC2CC2)[C@H](C4)[C@]3(O)C1)c1nc(-c2ccccc2)no1` [NALDEMEDINE], the ED50 is 0.03 mg/kg in the data set on Mustela putorius furo, more than 30 mg/kg in the data set with Rattus norvegicus [12] and 0.03 mg/kg in the data set filed under Rattus norvegicus [13]. Further, the Ke in data set [11] turned out to be 0.37 nM; at Mu-type opioid receptor [17] it was 0.05 nM. The remaining at 0.5 h, 0.5 µM stood at 76% in data set [1] and 73% in data set [10]. For the same compound, in data set [2], the remaining at 24 h was more than 80%. The entries for the “Ratio ED50” value (with Rattus norvegicus [14]; in data set [15]) were more than 500 and more than 1000, respectively. Besides, the apparent clearance (CL/F) in data set [3] came out at 1.2 L/h/kg. The same compound had a Cmax in data set [4] of 1.3 ng/mL. Moreover, the Ki is 0.91 nM in data set [5] and 1.1 to 1.13 nM on Mu-type opioid receptor [8]. For the same compound, the Stability entry in data set [16] is “Stable”. The compound further returned a bioavailability in data set [6] of 29%. This compound also displayed a Kp in [7] of 0.03.
Turning to `N#Cc1ccc(NC(=O)C2=C(O)[C@@H]3Oc4c(O)ccc5c4[C@@]34CCN(CC3CC3)[C@H](C5)[C@]4(O)C2)cc1`, the remaining at 0.5 h, 0.5 µM in [1] stood at 92%; in data set [10], 103%. In addition, in data set [2], the remaining at 24 h was more than 80%. The compound further had a CL/F in data set [3] of 0.51 L/h/kg. Besides, the Cmax in data set [4] was determined as 1.3 ng/mL. The inhibitory constant (Ki) in data set [5] amounted to 11.1 nM; at Mu-type opioid receptor [8], 5.1 nM. In data set [16], the Stability entry is reported as “Stable”. The compound also came in with a bioavailability in data set [6] of 12%. Also, the Kp in data set [7] turned out to be 0.03.
Take `O=C(Nc1ccccn1)C1=C(O)[C@@H]2Oc3c(O)ccc4c3[C@@]23CCN(CC2CC2)[C@H](C4)[C@]3(O)C1`: the remaining at 0.5 h, 0.5 µM in data set [1] amounted to 97%; in data set [10] it was 98%. Further, in data set [2], the remaining at 24 h is more than 80%. The compound further displayed a CL/F in data set [3] of 1.5 L/h/kg. In [4], this compound had a Cmax of 5.6 ng/mL. For the same compound, the Ki in data set [5] is 6.8 nM; on Mu-type opioid receptor [8] it was 9.8 nM. Besides, in data set [16], the Stability entry is “Stable”. For the same compound, the bioavailability in data set [6] worked out at 55%. In data set [7], the Kp turned out to be 0.05.
Take `Cc1noc(C(C)(C)NC(=O)C2=C(O)[C@@H]3Oc4c(O)ccc5c4[C@@]34CCN(CC3CC3)[C@H](C5)[C@]4(O)C2)n1`: the remaining at 0.5 h, 0.5 µM in data set [1] was 99%; in data set [10], 92%. The remaining at 24 h in [2] is more than 80%. This compound also registered a CL/F in data set [3] of 1.74 L/h/kg. In [4], this compound had a Cmax of 0.29 ng/mL. The Ki in data set [5] was found to be 5.8 nM; at Mu-type opioid receptor [8], 7.3 nM. Further, the Stability result in data set [16] was “Stable”. Also, the bioavailability in [6] came to 11%. Also, the Kp in [7] worked out at 0.04.
For `CC(C)(NC(=O)C1=C(O)[C@@H]2Oc3c(O)ccc4c3[C@@]23CCN(CC2CC2)[C@H](C4)[C@]3(O)C1)C(=O)NS(C)(=O)=O`, the remaining at 0.5 h, 0.5 µM in data set [1] came out at 99%; in data set [10], 104%. Besides, the remaining at 24 h in data set [2] is more than 80%. Moreover, in [3], the CL/F is 0.9 L/h/kg. In data set [4], this compound registered a maximum concentration (Cmax) of 0.018 ng/mL. Moreover, the Ki in data set [5] turned out to be 5.5 nM; on Mu-type opioid receptor [8], 93.6 nM. The Stability result in data set [16] is “Stable”. Moreover, the bioavailability in data set [6] came out at 0.77%. The compound also displayed a concentration ratio (Kp) in data set [7] of 0.01.

A word on the CL/F: it is clearance divided by bioavailability, as obtained after extravascular dosing. Usually Cmax stands for the highest concentration seen after dosing. The Ki is the dissociation constant of the complex between target and ligand, obtained from inhibition or displacement. As usually defined, the bioavailability is dose-corrected exposure relative to a reference, in per cent. A low value points to little systemic uptake. The Kp is the ratio of the level in a tissue or fluid to that in plasma or blood. Usually ED50 stands for the dose that gives a 50% effect, or the effect in half of the subjects.
